From article PMC9313812, “The Pseudo‐Natural Product Rhonin Targets RHOGDI” (Angewandte Chemie (International Ed. in English), 2022)
Converted amounts (≈) assume the structure as drawn.

Tests used:
[1] = system: NIH/3T3 cells; test: Smoothened trafficking (ciliary localization of SMO); assay type: cell-based; details: purmorphamine stimulation
Experimental: in fresh medium containing 0.5 % FBS and 5 nM BODIPY-cyclopamine for 4 h. Afterwards, cell nuclei were stained with 1 µg/ml DAPI for 10 min, samples were washed three times with PBS and subsequently mounted on glass slides using Aqua Polymount (Polysciences Inc).
Images were acquired on an Axiovert Observer Z1 microscope (Carl Zeiss, Germany) using a Plan-Apochromat 63x/1.40 Oil DIC M27 objective.
Additionally, SMO binding was confirmed by flow cytometry. HEK293T cells were seeded (3×10^5 per well) in 6-well plate and transfected with BFP-SMO-expressing plasmid using FuGENE HD transfection reagent according to the manufacturer’s instructions. After 48 h of incubation the medium was replaced by DMEM containing 0.5% FBS, 5 nM BODIPY-cyclopamine and various concentrations of the test compounds or DMSO as a control. […]
projections, after previous background subtraction. For quantification, cilia were identified and […]
Smoothened antibody were measured within these areas. […]
significances were assessed using an unpaired t-test (confidence interval of 95%) with the […]
(§1) replicates were performed and for each replicate at least 100 cilia per condition were analyzed.
Reverse transcription- quantitative PCR (RT-qPCR) […]
(§2) DNase I digestion step. The concentration of purified RNA was determined by means of the […]

[2] = system: Ptch1 and Gli1 expression in C3H/10T1/2 cells; test: RT-qPCR of Hh target genes; assay type: cell-based, mouse; details: 1.5 μM purmorphamine, 96 h
Experimental: three times with PBS and mounted on glass slides using Aqua Polymount (Polysciences Inc).
Images were acquired as Z-sections with Leica SP5 confocal microscope using a 63x 1.40 NA
Oil objective (Leica Microsystems CMS GmbH, Mannheim, Germany). Image analysis was
performed using the software ImageJ. Briefly, Z-stacks were converted to intensity sum
projections, after previous background subtraction. For quantification, cilia were identified and
marked based on the acetylated-tubulin staining intensities and the intensities of the anti-
Smoothened antibody were measured within these areas. Results were visualized and
significances were assessed using an unpaired t-test (confidence interval of 95%) with the
software GraphPad Prism 7, GraphPad software, USA). Three independent biological
as §1
Reverse transcription- quantitative PCR (RT-qPCR)
C3H10T1/2 cells were seeded (1×10^5 per well) in 6-well plates. 48 h later cells were treated […]
as §2
QuantiTect Reverse Transcription Kit (Qiagen) according to the manufacturer’s protocol. […]
determined by means of quantitative RT-PCR using the QuantiFast SYBR Green PCR Kit […]
genes. The expression levels of Ptch1 and Gli1 were determined using the 2−ΔΔCt method.[6] […]

[3] = Kinetic solubility determination; assay type: physicochemical; details: for solubility kinetic: aqueous buffer, pH 7.4, aqueous buffer, kinetic from dmso stock, Table S9
Experimental: (1 picture or pasted object on this page, not shown here)
Each sample was tested in triplicate.

[4] = target: T1, RHOGDI1 (Homo sapiens, UniProt P52565); test: Limited proteolysis mass spectrometry (LiP-MS); assay type: binding; details: 100 μM compound
T1 construct: GST; made in house; host or cells: E. coli (XL1-Blue / BL21)
T1 sequence (P52565 16-204): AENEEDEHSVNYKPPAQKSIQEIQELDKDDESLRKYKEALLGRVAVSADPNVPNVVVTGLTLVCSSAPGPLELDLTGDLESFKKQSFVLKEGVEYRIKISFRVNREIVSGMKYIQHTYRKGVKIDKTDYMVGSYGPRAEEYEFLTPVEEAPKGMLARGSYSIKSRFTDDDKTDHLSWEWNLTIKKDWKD

Structure (SMILES): COC(=O)C1(C(CC(=O)c2ccccc2)c2ccccc2)N=C(c2ccc(Br)cc2)C2C(=O)N(C)C(=O)C21 (centres unmarked) [7a]
- Localization of SMO to cilia (in words) [1]: did not affect the localization of SMO to cilia
- Expression of the Hh target genes Ptch1 and Gli1 (remaining) ([2]; 5 μM, purmorphamine-treated cells = 100 %): approx. 50%
- Solubility (in words) [3]: limited solubility
- solubility kinetic [3]: 5.7 µM (≈ 3.27 µg/mL)

Structure (SMILES): COC(=O)C1(C(CC(=O)c2cccnc2)c2ccccc2)N=C(c2ccc(Br)cc2)C2C(=O)N(C)C(=O)C21 (centres unmarked) [7l]
- Localization of SMO to cilia (in words) [1]: SMO was localized to the cilia
- Expression of the Hh target genes Ptch1 and Gli1 (in words) [2]: only slightly reduced
- Protection of RHOGDI1 peptides from proteinase K-mediated proteolysis (in words) [4]: several peptides in the 179–199 amino acid sequence were protected
- solubility kinetic [3]: 47.3 µM (≈ 27.2 µg/mL)
